Earlier results, collected in US20240041741A1, “COSMETIC COMPOSITION OBTAINED BY MIXING TWO SILANE BLENDS” (Henkel AG & Co. KGaA, priority 2020, published 2024).

Conditions: for solubility in water: 25° C.

| solubility in water (in words) (at 25° C.) | Compound | solubility in water |
| --- | --- | --- |
|  | Nc1cc(S(=O)(=O)[O-])cc2cc(S(=O)(=O)[O-])c(N=Nc3ccccc3)c(O)c12.[Na+].[Na+] [Acid Red 33, diantrium salt of 5-amino-4-hydroxy-3-(phenylazo)-naphthalene-2,7-disulphonate] | 2.5 mg/mL |
|  | O=C([O-])c1c(Cl)c(Cl)c(Cl)c(Cl)c1-c1c2c(Br)cc(=O)c(Br)c-2oc2c(Br)c(O)cc(Br)c12.O=C([O-])c1c(Cl)c(Cl)c(Cl)c(Cl)c1-c1c2c(Br)cc(=O)c(Br)c-2oc2c(Br)c(O)cc(Br)c12.[Na+].[Na+] [Acid Red 92, disodium salt of 3,4,5,6-tetrachloro-2-(1,4,5,8-tetrabromo-6-hydroxy-3-oxoxanthen-9-yl)benzoic acid] | greater than 10 g/L |
|  | mixture of the sodium salts of mono- and sisulfonic acids of 2-(2-quinolyl)-1H-indene-1,3(2H)-dione [Acid Yellow 3] | 20 mg/mL |
| readily soluble in water | O=C([O-])C1=NN(c2ccc(S(=O)(=O)[O-])cc2)C(=O)C1N=Nc1ccc(S(=O)(=O)[O-])cc1.[Na+].[Na+].[Na+] (centres unmarked) [Acid Yellow 23, trisodium salt of 4,5-dihydro-5-oxo-1-(4-sulfophenyl)-4-((4-sulfophenyl)azo)-1H-pyrazole-3-carboxylic acid] |  |
|  | O=S(=O)([O-])c1ccc(N=Nc2c(O)ccc3ccccc23)cc1.[Na+] [Acid Orange 7, sodium salt of 4-[(2-hydroxy-1-naphthyl)azo]benzene sulphonate] | more than 7 g/L |
